Read-outs that look alike come from different tables or passages of the source.
Key:
CYP2C9 = CYP2C9 (Homo sapiens, UniProt P11712); assay: CYP direct inhibition in human liver microsomes
Method: (§1) Test compound/controls working solution or DMSO were added in 238.5 µL of liver microsomes working solution, mixed well by pipetting several times and pre-incubated in a 37 °C shaking water bath for 5 min. Following the pre-incubation, 60 µL of NADPH working solution were added, mixed well by pipetting several times, and incubated in a 37 °C shaking water bath for 10 min. Following the incubation, 300 µL of quenching solution were immediately added and vortexed for ~20 s to mix. All samples were centrifuged at 4000 rpm for 15 min at 4 °C and then the supernatant was transferred for LC-MS/MS analysis. IC50 values were determined by the Hill slope equation using Graph Pad Prism.
(§2) For competitive and time-dependent CYP inhibition, the peak area ratios (PAR) of analyte/internal standard were used to semi-quantitatively determine the concentration of acetaminophen (CYP1A2 activity), 4’-hydroxydiclofenac (CYP2C9), 4’-hydroxymephenytoin (CYP2C19), dextrorphan (CYP2D6), 1’-hydroxymidazolam (CYP3A4), 6β-hydroxytestosterone (CYP3A4), hydroxybupropion (CYP2B6), and N-desethylamodiaquine (CYP2C8), with terfenadine as the internal standard by LC-MS/MS method. The HPLC-MS system utilized an Acquity UPLC system and Sciex API 4000 mass spectrometer in ESI positive mode, with quantitation employing MRM. Samples were injected onto an Atlantis T3 5 μM column (2.1 x 50 mm). […]

CYP2C8 [1] = biological target: T1, CYP2C8 (Homo sapiens, UniProt P10632); assay: CYP direct inhibition in human liver microsomes
T1 sequence (P10632 1-490): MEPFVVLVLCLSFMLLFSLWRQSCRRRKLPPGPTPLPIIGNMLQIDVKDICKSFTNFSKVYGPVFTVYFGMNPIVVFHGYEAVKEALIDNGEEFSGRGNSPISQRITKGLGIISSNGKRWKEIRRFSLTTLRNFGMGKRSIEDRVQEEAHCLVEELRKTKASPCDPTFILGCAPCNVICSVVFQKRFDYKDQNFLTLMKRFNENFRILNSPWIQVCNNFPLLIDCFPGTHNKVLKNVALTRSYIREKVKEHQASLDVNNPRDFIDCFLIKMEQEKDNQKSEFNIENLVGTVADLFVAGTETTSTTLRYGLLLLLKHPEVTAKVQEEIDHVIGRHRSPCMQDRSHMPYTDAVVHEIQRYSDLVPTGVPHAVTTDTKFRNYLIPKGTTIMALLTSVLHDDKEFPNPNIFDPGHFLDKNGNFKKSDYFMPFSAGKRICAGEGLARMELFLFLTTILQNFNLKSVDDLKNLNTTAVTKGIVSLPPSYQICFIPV
Method: as §1, §2

CYP2C19 [2] = biological target: T2, CYP2C19 (Homo sapiens, UniProt P33261); settings: microsomes
Method: (§3) Incubation without 30 min pre-incubation, 178.5 µL of liver microsomes working was pre-incubated in a 37 °C water bath for 30 min. After the pre-incubation, 1.5 μL of test compound or control compound working solution, 60 μL of substrate working solution, and 60 μL of NADPH working solution were added; then, the reaction mixture was mixed by pipetting up and down and then incubated at 37 °C for 10 min. Incubation with 30 min pre-incubation. Next, 1.5 μL of test compound or control compound working solutions and 60 μL of NADPH working solution were added into 178.5 μL of liver microsome working solution, then the reaction mixture was mixed by pipetting up and down and then pre-incubated at 37 °C for 30 min. […]
(§4) For competitive and time-dependent CYP inhibition, the peak area ratios (PAR) of analyte/internal standard were used to semi-quantitatively determine the concentration of acetaminophen (CYP1A2 activity), 4’-hydroxydiclofenac (CYP2C9), 4’-hydroxymephenytoin (CYP2C19), dextrorphan (CYP2D6), 1’-hydroxymidazolam (CYP3A4), 6β-hydroxytestosterone (CYP3A4), hydroxybupropion (CYP2B6), and N-desethylamodiaquine (CYP2C8), with terfenadine as the internal standard by LC-MS/MS method. The HPLC-MS system utilized an Acquity UPLC system and Sciex API 4000 mass spectrometer in ESI positive mode, with quantitation employing MRM. […]

CYP3A4/5 = settings: microsomes
Method: as §3, §4

[3] = set-up: method as in PMID 29796228; settings: rat, cited from earlier work
CYP2C8 [4] = biological target: T1, CYP2C8; settings: microsomes
Method: as §3, §4

CYP1A2 [5] = biological target: T3, CYP1A2 (Homo sapiens, UniProt P05177); assay: Time-dependent inhibition (IC50 shift) in human liver microsomes; assay type: in vitro ADME
T3 construct: Mixed human liver microsomes were purchased from BioreclamationIVT; tissue BioreclamationIVT; host or cells: mixed-donor pool of human liver microsomes (Lot ZZQ)
T3 sequence (P05177 1-516): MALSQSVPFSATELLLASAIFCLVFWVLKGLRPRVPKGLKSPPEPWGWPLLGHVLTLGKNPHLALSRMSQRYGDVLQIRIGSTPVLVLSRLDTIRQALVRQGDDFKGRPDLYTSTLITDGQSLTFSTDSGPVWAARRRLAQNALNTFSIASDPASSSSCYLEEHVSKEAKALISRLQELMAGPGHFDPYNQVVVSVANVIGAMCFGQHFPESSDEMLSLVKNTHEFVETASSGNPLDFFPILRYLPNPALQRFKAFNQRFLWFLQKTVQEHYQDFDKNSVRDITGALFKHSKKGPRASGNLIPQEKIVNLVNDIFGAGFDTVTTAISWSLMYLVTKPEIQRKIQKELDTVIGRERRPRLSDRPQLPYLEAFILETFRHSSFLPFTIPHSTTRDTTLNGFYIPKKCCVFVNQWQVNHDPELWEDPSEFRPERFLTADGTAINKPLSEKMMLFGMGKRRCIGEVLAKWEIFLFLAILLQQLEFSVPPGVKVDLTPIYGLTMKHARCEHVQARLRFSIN
Method: Incubation without 30 min pre-incubation, 178.5 µL of liver microsomes working was pre-incubated in a 37 °C water bath for 30 min. After the pre-incubation, 1.5 μL of test compound or control compound working solution, 60 μL of substrate working solution, and 60 μL of NADPH working solution were added; then, the reaction mixture was mixed by pipetting up and down and then incubated at 37 °C for 10 min. Incubation with 30 min pre-incubation. Next, 1.5 μL of test compound or control compound working solutions and 60 μL of NADPH working solution were added into 178.5 μL of liver microsome working solution, then the reaction mixture was mixed by pipetting up and down and then pre-incubated at 37 °C for 30 min. After the pre-incubation, 60 μL of substrate working solution was added, then the reaction mixture was mixed by pipetting up and down and then incubated at 37 °C for 10 min. Following the incubation, 300 μL of quenching solution was added into the corresponding wells to terminate the reaction. All the above samples were vortexed for 1 min and centrifuged at 4000 rpm, 4 °C for 15 min. After centrifugation, the supernatant was removed for further LC-MS/MS analysis.
as §2

CYP2B6 [6] = biological target: T4, CYP2B6 (Homo sapiens, UniProt P20813); assay: biochemical
T4 sequence (P20813 1-491): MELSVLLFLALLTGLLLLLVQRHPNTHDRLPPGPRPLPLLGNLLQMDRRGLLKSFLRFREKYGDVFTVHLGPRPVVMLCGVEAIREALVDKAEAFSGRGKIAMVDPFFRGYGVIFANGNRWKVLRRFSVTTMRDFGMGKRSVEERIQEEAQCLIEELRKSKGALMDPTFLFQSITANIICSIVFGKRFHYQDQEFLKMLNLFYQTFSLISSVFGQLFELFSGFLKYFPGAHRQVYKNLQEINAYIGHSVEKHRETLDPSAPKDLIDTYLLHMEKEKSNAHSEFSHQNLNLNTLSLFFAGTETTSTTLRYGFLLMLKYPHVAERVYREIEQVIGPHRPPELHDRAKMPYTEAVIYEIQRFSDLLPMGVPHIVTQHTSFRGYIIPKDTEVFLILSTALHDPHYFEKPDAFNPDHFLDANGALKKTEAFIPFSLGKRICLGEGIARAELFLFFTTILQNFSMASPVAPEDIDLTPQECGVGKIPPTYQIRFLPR
Method: as §3, §4

CYP2B6 [7] = biological target: T4, CYP2B6; settings: microsomes
Method: as §3, §4

CYP2D6 [8] = biological target: T5, CYP2D6 (Homo sapiens, UniProt P10635); assay: Time-dependent inhibition (IC50 shift) in human liver microsomes
Method: as §3, §4

CYP2D6 [9] = biological target: T5, CYP2D6; assay: biochemical
Method: as §1, §2

CYP1A2 [10] = biological target: T3, CYP1A2; assay: CYP direct inhibition in human liver microsomes; assay type: in vitro ADME; settings: probe phenacetin, mean of N = 2
in vitro = settings: human, plasma, pH 7.4
Method: The experiment was performed using equilibrium dialysis with the two compartments separated by a semi-permeable membrane. Phosphate-buffered saline (PBS) (pH 7.4) was added to one side of the membrane and the plasma solution to the other side. After equilibration (5 h at 37 °C), samples were taken from both sides of the membrane, transferred to a new plate, and were matrix-matched by the addition of an appropriate amount of PBS to the plasma samples and blank plasma to the PBS samples. […] Incubations were performed in duplicate. Warfarin served as a control. The fraction unbound in plasma (fu,p) = Cb/Cp, where Cb represents the concentration in buffer and Cp the concentration in plasma at 5 h.

[11] = set-up: method as in PMID 35684130; settings: cited from earlier work
CYP2C19 [12] = biological target: T2, CYP2C19; assay: Time-dependent inhibition (IC50 shift) in human liver microsomes
Method: as §3, §4

MAO-A = system: MAO-A; set-up: method as in PMID 19168123; settings: isolated compound at 10 µM; cited from earlier work
CYP3A4 = settings: for % of Positive Control / Mean Fold Induction: human, 48 h

T5 sequence (P10635 whole entry): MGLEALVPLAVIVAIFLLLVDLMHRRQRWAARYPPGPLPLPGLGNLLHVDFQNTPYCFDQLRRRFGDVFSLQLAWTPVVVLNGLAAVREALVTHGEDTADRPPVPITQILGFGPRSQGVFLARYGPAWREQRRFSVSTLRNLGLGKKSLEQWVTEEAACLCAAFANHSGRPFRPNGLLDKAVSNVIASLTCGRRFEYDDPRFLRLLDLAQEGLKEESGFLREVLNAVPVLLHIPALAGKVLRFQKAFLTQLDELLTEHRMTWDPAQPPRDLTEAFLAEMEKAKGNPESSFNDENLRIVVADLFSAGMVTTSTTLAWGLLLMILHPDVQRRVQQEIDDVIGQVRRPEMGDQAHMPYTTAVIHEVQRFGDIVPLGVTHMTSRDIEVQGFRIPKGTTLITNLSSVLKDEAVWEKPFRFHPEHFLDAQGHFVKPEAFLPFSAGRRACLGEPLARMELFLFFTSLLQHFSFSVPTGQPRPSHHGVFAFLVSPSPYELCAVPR
T2 sequence (P33261 whole entry): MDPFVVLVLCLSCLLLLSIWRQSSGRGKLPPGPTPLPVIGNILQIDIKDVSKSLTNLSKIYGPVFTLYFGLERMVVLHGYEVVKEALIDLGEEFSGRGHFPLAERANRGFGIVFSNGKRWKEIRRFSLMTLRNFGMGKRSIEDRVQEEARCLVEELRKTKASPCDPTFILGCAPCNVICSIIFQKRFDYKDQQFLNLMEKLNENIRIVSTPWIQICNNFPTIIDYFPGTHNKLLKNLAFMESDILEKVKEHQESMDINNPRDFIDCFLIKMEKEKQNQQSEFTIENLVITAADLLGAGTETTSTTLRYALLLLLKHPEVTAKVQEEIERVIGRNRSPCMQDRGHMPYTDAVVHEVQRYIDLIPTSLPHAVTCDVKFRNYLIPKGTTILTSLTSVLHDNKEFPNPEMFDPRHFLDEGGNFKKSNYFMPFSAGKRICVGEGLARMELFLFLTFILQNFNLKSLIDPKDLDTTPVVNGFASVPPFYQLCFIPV
Sequence of CYP2C9 (P11712 whole entry): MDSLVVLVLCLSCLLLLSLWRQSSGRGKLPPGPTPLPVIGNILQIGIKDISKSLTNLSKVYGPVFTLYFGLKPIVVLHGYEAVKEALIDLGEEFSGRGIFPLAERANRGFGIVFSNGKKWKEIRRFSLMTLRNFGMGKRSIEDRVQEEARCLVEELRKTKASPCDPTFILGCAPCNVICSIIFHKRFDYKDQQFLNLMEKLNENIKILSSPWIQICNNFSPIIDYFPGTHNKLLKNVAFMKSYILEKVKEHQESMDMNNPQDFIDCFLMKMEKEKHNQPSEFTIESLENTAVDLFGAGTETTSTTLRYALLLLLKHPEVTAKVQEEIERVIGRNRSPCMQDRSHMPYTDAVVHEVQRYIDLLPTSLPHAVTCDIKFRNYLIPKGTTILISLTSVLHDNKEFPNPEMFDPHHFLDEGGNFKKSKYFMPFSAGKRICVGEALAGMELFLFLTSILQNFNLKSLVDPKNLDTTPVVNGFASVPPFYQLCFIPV

## OC[C@H]1O[C@@H](OCCc2ccc(O)cc2)[C@H](O)[C@@H](O)[C@@H]1O [Salidroside]
CYP2C9
  IC50: > 50 µM
CYP2C8 [1]
  IC50: > 50 µM
CYP2C19 [2]
  IC50 Shift: no shift
CYP3A4/5
  IC50 Shift: no shift
[3]; 12 mg/kg IV
  clearance: 21 mL/min/kg
[3]; 12 mg/kg oral
  oral bioavailability (fb): 32.1%
[3]; oral 12 mg/kg
  observed Cmax: 4300 ng/mL
[3]; oral 12 mg/kg, read-out: observed Cmax
  Cmax: 14.3 µM
CYP2C8 [4]
  IC50 Shift: no shift
CYP1A2 [5]; IC50 without/with preincubation, >[…] positive for TDI
  IC50 Shift: no shift
CYP1A2 [5]; probe phenacetin, positive control not given, likely furafylline
  IC50: > 50 µM
CYP1A2 [5]; read-out: IC50 after 30 min Preincubation with NADPH, probe phenacetin, positive control not given, likely furafylline
  IC50: > 50 µM
CYP2B6 [6]
  IC50: > 50 µM
CYP2B6 [7]
  IC50 Shift: no shift
CYP2D6 [8]
  IC50: > 50 µM
CYP2D6 [9]
  IC50: > 50 µM
CYP1A2 [10]
  IC50: > 50 µM
In vitro
  fraction unbound at 5 h, 5 µM: 0.985
[11]
  genotoxicity: not genotoxic
CYP2C19 [12]
  IC50: > 50 µM
MAO-A
  inhibition of MAO-A: inactive
CYP3A4; CYP3A4, Lot# SNP, 0.1 µM, N = 3
  Mean Enzyme Activity: 1.82 pmol/10^6 cells/min
CYP3A4; 0.1 µM
  % of Positive Control: −15%
  Mean Fold Induction: 2.07 fold
CYP3A4; 1 µM
  % of Positive Control: −26%
  Mean Fold Induction: 1.55 fold
CYP3A4; 10 µM
  % of Positive Control: −14%
  Mean Fold Induction: 2.13 fold

From article PMC10489644, “In Vitro Evaluation of the Potential for Drug Interactions by Salidroside” (Nutrients, 2023)
